# Patent US4309343A, “Pharmacologically active peptides” (Eli Lilly and Company, priority 1980, dated 1982)
# Where “and” joins values, the source holds several entries; their conditions need not be identical. Identical values can stand only once. Counter-ions that a name gives are not always drawn.
# Key:
# mouse (Cox Standard) = assay: mouse hot plate test (mouse jump); format: in vivo; settings: subcutaneous injection, 15 minutes after administration, hot plate 52° C., dose producing analgesia in 50% of mice
# Procedure: In the mouse hot plate test, an upright acrylic cylinder comprising, as its base, a hot plate surface which is maintained at 52° C. is used. A mouse (Cox Standard) is given, by subcutaneous injection, a predetermined amount of test compound dissolved or suspended in a suitable carrier, and, 15 minutes after administration of the test compound, the mouse is placed on the hot plate surface. The latency in seconds until the mouse jumps from the hot plate surface is measured. […] This must occur in a dose range which produces no motor incoordination or incapacitation. The following Table records ED50 results obtained from this test. By the term "ED50 " is meant that dose which produces analgesia in 50% of the mice tested. Analgesia is defined as a response latency in the presence of test compound that is equal to or greater than the control response latency plus two standard deviations. The percent analgesia data are converted to probits, and the ED50 is calculated by regression analysis of the dose-response data. Each dose response curve must have at least four points, and each point is determined using data from a minimum of ten treated mice and ten control mice.
# mouse vas deferens = mouse vas deferens test, electrically evoked twitch; format: cell-based; settings: concentration causing depression of 50% of the electrically evoked contraction; field stimulation 0.15 Hz, 1 msec., 40 V; 37° C.
# Procedure: In the mouse vas deferens test, single mouse vas deferens from mature mice (Cox, 30-40 g.) are suspended in 3 ml. of modified Kreb's solution aerated with 95% O2 -5% CO2 and maintained at 37° C. The twitch induced by field stimulation (0.15 Hz, 1 msec., 40 V) is recorded on a polygraph via an isometric transducer. The test compound is added to the bath in 20 to 30 μl. aliquots. A dose-response curve is constructed by cumulative addition of appropriate amounts of the compound to the bath. Comparison of relative agonist potency is made on the basis of IC50 values (concentration causing depression of 50% of the electrically evoked contraction).
# mice = settings: cited from earlier work; for analgesic activity upon intracerebroventricular administration: mice, intracerebroventricularly, Buscher et al., Nature, 261, 423 (1976); for analgesic activity when administered parenterally: parenteral administration
Compound,Mouse Jump ED50 (mouse (Cox Standard); Diformate Salt),Mouse Jump ED50 (mouse (Cox Standard)) [mg/kg],IC50 (mouse vas deferens) [nM],analgesic activity upon intracerebroventricular administration (mice),analgesic activity when administered parenterally (mice)
"N,N'-1,4-Butanediylbis-[L-tyrosyl-D-alanyl-glycyl-L-phenylalanyl-L-(N^α -methyl)methioninamide], Diformate Salt [Example 4]",5.5 mg/kg and 9.85 mg/kg,,,,
CSCC[C@@H](C(N)=O)N(C)C(=O)[C@H](Cc1ccccc1)NC(=O)CNC(=O)[C@@H](C)NC(=O)[C@@H](N)Cc1ccc(O)cc1 [H--LTyr--DAla--Gly--LPhe--L(N--Me)Met--NH2],,0.363,12.2,,
"CC(=O)O.CC(=O)O.C[C@@H](NC(=O)[C@@H](N)Cc1ccc(O)cc1)C(=O)NCC(=O)N[C@@H](Cc1ccccc1)C(=O)NCCCCNC(=O)[C@H](Cc1ccccc1)NC(=O)CNC(=O)[C@@H](C)NC(=O)[C@@H](N)Cc1ccc(O)cc1 [Example 1, N,N'-1,4-Butanediylbis-[L-tyrosyl-D-alanyl-glycyl-L-phenylalanylamide], Diacetate Salt]",,0.370,2.83,,
C[C@@H](NC(=O)[C@@H](N)Cc1ccc(O)cc1)C(=O)NCC(=O)N[C@@H](Cc1ccccc1)C(N)=O [H--LTyr--DAla--Gly--LPhe--NH2],,0.85,189,,
"C[C@@H](NC(=O)[C@@H](N)Cc1ccc(O)cc1)C(=O)NCC(=O)N[C@@H](Cc1ccccc1)C(=O)NCCCCCCCCNC(=O)[C@H](Cc1ccccc1)NC(=O)CNC(=O)[C@@H](C)NC(=O)[C@@H](N)Cc1ccc(O)cc1 [Example 2, N,N'-1,8-Octanediylbis-[L-tyrosyl-D-alanyl-glycyl-L-phenylalanylamide], Diacetate Salt]",,> 30,67,,
H-Tyr-Gly-Gly-Phe-Met-OH [methionine enkephalin],,,,exhibit analgesic activity,practically devoid of any useful analgesic activity
H-Tyr-Gly-Gly-Phe-Leu-OH. [leucine enkephalin],,,,exhibit analgesic activity,practically devoid of any useful analgesic activity
